These results are taken from patent US12630565B2, “DNA-dependent protein kinase inhibitor” (DIZAL (JIANGSU) PHARMACEUTICAL CO., LTD., priority 2019, dated 2026).

Data set [1] in a line: Metabolic stability assay (human microsomal Clint). It counts as in vitro ADME. Particulars: 1 mg/mL microsomes, 1 mM NADPH, 37° C.; for Human liver microsomal CLint: 1 μM compound; for microsomal CLint at 1 μM: human, pooled human liver microsomes, pH 7.4, 1 μM compound. In short, it runs like this: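 Compound (1 μM) incubated at 37 °C with pooled human liver microsomes (1 mg/mL) and 1 mM NADPH in 100 mM phosphate, pH 7.4. Samples quenched in acetonitrile at 0–30 min and analysed by LC-MS/MS for parent loss. CLint reported in μl/min/mg.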
On the technique in general: Liver microsomes are vesicles of endoplasmic reticulum, rich in cytochrome P450 enzymes.

In another data set the test system is Rat hepatocyte. Description: Metabolic stability assay (rat hepatocyte Clint). It counts as in vitro ADME. Particulars: 1 μM compound, cryopreserved hepatocytes 1 million cells per mL. In outline: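 Compound at 1 μM incubated with cryopreserved rat hepatocytes, 1 million cells/mL, sampled 0–120 min with acetonitrile quench and LC-MS/MS quantitation. CLint (μL/min/E6) derived from elimination rate constant and half-life of parent disappearance, scaled by cell concentration.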

In data set [2] the target is Full length human DNAPK protein (Homo sapiens, UniProt P78527). Kind of data set: DNA-PK enzymatic assay (TR-FRET). Type of data set: biochemical. Particulars: 10 μM ATP, 1.6 μM peptide substrate. (TR-FRET usually uses a lanthanide donor and a delayed reading to cut background.)
For data set [3], the system named is MDCKII-MDR1-BCRP cell monolayers. Kind of data set: MDCKII-MDR1-BCRP efflux assay. It counts as in vitro ADME. Particulars: 5 μM compound, 120 min, HBSS pH 7.4. In short, it runs like this:
(§1)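 Bidirectional (A-B, B-A) transport of 5 μM compound across MDCKII-MDR1-BCRP monolayers in HBSS, 25 mM HEPES pH 7.4, ~37° C. for 120 min, triplicate; donor and receiver concentrations measured, monolayer integrity checked with Lucifer yellow. Papp and efflux ratio calculated.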

In the next data set the test system is MDR1, BCRP. Description: MDCKII-MDR1-BCRP efflux assay. Type of data set: in vitro ADME. Particulars: dog, pH 7.4, 5 μM compound, HBSS pH 7.4, read-out: MDCK-Mdr1-BCRP efflux ratio. In outline: as §1

Broadly, the IC50 is the concentration needed to halve the response being measured. Read a high IC50 as weaker potency. In general, microsomal CLint refers to the rate of metabolic loss divided by the concentration. Read a high microsomal CLint as faster metabolism.

With `Cc1cc2ncnn2cc1Nc1ncc2c(C)nn(C3CC(C)OC(C)C3)c2n1` (single isomer, unassigned) [Example 86-1, 1-(2,6-dimethyltetrahydro-2H-pyran-4-yl)-3-methyl-N-(7-methyl-[1,2,4]triazolo[1,5-a]pyridin-6-yl)-1H-pyrazolo[3,4-d]pyrimidin-6-amine], the “Human liver microsomal CLint” value in data set [1] is over 300 µL/min/mg. For the same molecule, the “Rat hepatocyte CLint (μl/min/10^−6 cells)” value (“Rat hepatocyte CLint” below) with Rat hepatocyte came out at 42.7 μl/min/10^−6 cells. Moreover, in data set [2], the IC50 amounted to 3 nM. For the same molecule, in data set [3], the MDCK-Mdr1-BCRP efflux ratio amounted to 0.9.
Regarding `Cc1cc2ncnn2cc1Nc1ncc2c(C)nn(C3CCOC(C)(C)C3)c2n1` (single isomer, unassigned) [Example 117, 1-(2,2-dimethyltetrahydro-2H-pyran-4-yl)-3-methyl-N-(7-methyl-[1,2,4]triazolo[1,5-a]pyridin-6-yl)-1H-pyrazolo[3,4-d]pyrimidin-6-amine], the “Human liver microsomal CLint” value in data set [1] was determined as 50.4 µL/min/mg. The “Rat hepatocyte CLint” value in the data set on Rat hepatocyte worked out at 9.1 μl/min/10^−6 cells. The IC50 in data set [2] came to 1.8 nM. Also, the MDCK-Mdr1-BCRP efflux ratio in data set [3] worked out at 1.8.
In the same order, the values of `Cc1cc2ncnn2cc1Nc1ncc2c(C)nn(C3CCOCC3C)c2n1` (single isomer, unassigned) [Example 115, 3-methyl-N-(7-methyl-[1,2,4]triazolo[1,5-a]pyridin-6-yl)-1-(3-methyltetrahydro-2H-pyran-4-yl)-1H-pyrazolo[3,4-d]pyrimidin-6-amine] are 53.5 µL/min/mg, 7.7 μl/min/10^−6 cells, 1.9 nM and 2.
Take `Cc1cc2ncnn2cc1Nc1ncc2c(C)nn(CC3CCCO3)c2n1` (single isomer, unassigned) [Example 51, 3-methyl-N-(7-methyl-[1,2,4]triazolo[1,5-a]pyridin-6-yl)-1-((tetrahydrofuran-2-yl)methyl)-1H-pyrazolo[3,4-d]pyrimidin-6-amine]: the “Human liver microsomal CLint” value in data set [1] was determined as 20.9 µL/min/mg. For the same molecule, the “Rat hepatocyte CLint” value with Rat hepatocyte is under 1 μl/min/10^−6 cells. Moreover, the half-inhibitory concentration (IC50) in data set [2] turned out to be 12 nM. Besides, the MDCK-Mdr1-BCRP efflux ratio in data set [3] was found to be 1.9.
As for `Cc1cc2ncnn2cc1Nc1ncc2c(C)nn(C3CCCOC3)c2n1` (single isomer, unassigned) [Example 30, 3-methyl-N-(7-methyl-[1,2,4]triazolo[1,5-a]pyridin-6-yl)-1-(tetrahydro-2H-pyran-3-yl)-1H-pyrazolo[3,4-d]pyrimidin-6-amine], the “Human liver microsomal CLint” value in data set [1] came to 17.7 µL/min/mg. In addition, the “Rat hepatocyte CLint” value in the data set with Rat hepatocyte came to 4.5 μl/min/10^−6 cells. Also, inhibition in data set [2] was half-maximal at 15.7 nM (IC50). The MDCK-Mdr1-BCRP efflux ratio in data set [3] turned out to be 1.2.
In the case of `Cc1cc2ncnn2cc1Nc1ncc2c(C)nn(CC3CCOC3)c2n1` (single isomer, unassigned) [Example 53, 3-methyl-N-(7-methyl-[1,2,4]triazolo[1,5-a]pyridin-6-yl)-1-((tetrahydrofuran-3-yl)methyl)-1H-pyrazolo[3,4-d]pyrimidin-6-amine], in data set [1], the “Human liver microsomal CLint” value is 15.2 µL/min/mg. Besides, in the data set with Rat hepatocyte, the “Rat hepatocyte CLint” value is listed as 5.0 μl/min/10^−6 cells. Besides, in data set [2], the IC50 was determined as 7.2 nM. For the same molecule, the MDCK-Mdr1-BCRP efflux ratio in data set [3] is 2.4.
For `Cc1cc2ncnn2cc1Nc1ncc2c(C)nn(C3CCOC3)c2n1` (single isomer, unassigned) [Example 49, 3-methyl-N-(7-methyl-[1,2,4]triazolo[1,5-a]pyridin-6-yl)-1-(tetrahydrofuran-3-yl)-1H-pyrazolo[3,4-d]pyrimidin-6-amine], in data set [1], the “Human liver microsomal CLint” value worked out at 8.7 µL/min/mg. Also, in the data set with Rat hepatocyte, the “Rat hepatocyte CLint” value is under 1 μl/min/10^−6 cells. This molecule also returned an IC50 in data set [2] of 1.7 nM. For the same molecule, in data set [3], the MDCK-Mdr1-BCRP efflux ratio came out at 3.4.
As for `Cc1cc2ncnn2cc1Nc1ncc2c(C)nn(C3CCCOC3)c2n1` (single isomer, unassigned) [Example 29, 3-methyl-N-(7-methyl-[1,2,4]triazolo[1,5-a]pyridin-6-yl)-1-(tetrahydro-2H-pyran-3-yl)-1H-pyrazolo[3,4-d]pyrimidin-6-amine], the intrinsic clearance (microsomal CLint) at 1 μM in data set [1] worked out at 24.5 µL/min/mg. In the data set with Rat hepatocyte, the “Rat hepatocyte CLint” value stood at 13.3 μl/min/10^−6 cells. The molecule also had an IC50 in data set [2] of 2 nM. Also, the efflux ratio at 120 min, 5 μM in the data set on MDR1, BCRP was found to be 1.6.
In data set [1], `Cc1cc2ncnn2cc1Nc1ncc2c(C)nn(C3CCOCC3)c2n1` [Example 13, 3-methyl-N-(7-methyl-[1,2,4]triazolo[1,5-a]pyridin-6-yl)-1-(tetrahydro-2H-pyran-4-yl)-1H-pyrazolo[3,4-d]pyrimidin-6-amine] came in with a microsomal CLint at 1 μM of 12.9 µL/min/mg. The “Rat hepatocyte CLint” value with Rat hepatocyte was under 1 μl/min/10^−6 cells. Also, the IC50 in data set [2] was 3.9 nM. Further, the efflux ratio at 120 min, 5 μM with MDR1, BCRP is 2.8.
As for `Cc1cc(-c2nn(C)c3cnc(Nc4cn5ncnc5cc4C)nc23)ccn1` [Example 102, 1-methyl-N-(7-methyl-[1,2,4]triazolo[1,5-a]pyridin-6-yl)-3-(2-methylpyridin-4-yl)-1H-pyrazolo[4,3-d]pyrimidin-5-amine], the microsomal CLint at 1 μM in data set [1] was 15 µL/min/mg. In the data set with Rat hepatocyte, the “Rat hepatocyte CLint” value was determined as 32.0 μl/min/10^−6 cells. Moreover, inhibition in data set [2] was half-maximal at 0.9 nM (IC50). Moreover, the efflux ratio at 120 min, 5 μM in the data set with MDR1, BCRP was found to be 14.
Regarding `Cc1cc2ncnn2cc1Nc1ncc2c(C)nn(C3CCOCC3C)c2n1` (single isomer, unassigned) [Example 112, 3-methyl-N-(7-methyl-[1,2,4]triazolo[1,5-a]pyridin-6-yl)-1-(3-methyltetrahydro-2H-pyran-4-yl)-1H-pyrazolo[3,4-d]pyrimidin-6-amine], the microsomal CLint at 1 μM in data set [1] came out at 47 µL/min/mg. The “Rat hepatocyte CLint” value with Rat hepatocyte is 7.8 μl/min/10^−6 cells. Besides, the concentration for half-maximal inhibition (IC50) in data set [2] was 3.7 nM. For the same molecule, the efflux ratio at 120 min, 5 μM in the data set on MDR1, BCRP was 3.5.
`Cc1cc2nccn2cc1Nc1ncc2c(C)nn(C3CCOCC3)c2n1` [Example 14, 3-methyl-N-(7-methylimidazo[1,2-a]pyridin-6-yl)-1-(tetrahydro-2H-pyran-4-yl)-1H-pyrazolo[3,4-d]pyrimidin-6-amine] displayed an intrinsic metabolic clearance (microsomal CLint) at 1 μM in data set [1] of 9.9 µL/min/mg. For the same molecule, in the data set on Rat hepatocyte, the “Rat hepatocyte CLint” value turned out to be 1.7 μl/min/10^−6 cells. This molecule also yielded an IC50 in data set [2] of 1.6 nM. Also, the efflux ratio at 120 min, 5 μM with MDR1, BCRP came out at 2.3.
`Cc1cc2ncnn2cc1Nc1ncc2c(n1)c([C@H]1CC[C@@H](OC(F)F)CC1)nn2C` [Example 11, 3-((1s,4s)-4-(difluoromethoxy)cyclohexyl)-1-methyl-N-(7-methyl-[1,2,4]triazolo[1,5-a]pyridin-6-yl)-1H-pyrazolo[4,3-d]pyrimidin-5-amine] registered an intrinsic metabolic clearance (microsomal CLint) at 1 μM in data set [1] of over 300 µL/min/mg. Also, the “Rat hepatocyte CLint” value in the data set with Rat hepatocyte was 190.4 μl/min/10^−6 cells. The molecule further registered a half-maximal inhibitory concentration (IC50) in data set [2] of 0.7 nM. Moreover, the efflux ratio at 120 min, 5 μM with MDR1, BCRP stood at 1.8.
In data set [1], `Cc1cc2ncnn2cc1Nc1ncc2c(C)nn(C3CC4(COC4)C3)c2n1` [Example 42, 3-methyl-N-(7-methyl-[1,2,4]triazolo[1,5-a]pyridin-6-yl)-1-(2-oxaspiro[3.3]heptan-6-yl)-1H-pyrazolo[3,4-d]pyrimidin-6-amine] returned a microsomal CLint at 1 μM of 19.5 µL/min/mg. Further, in the data set with Rat hepatocyte, the “Rat hepatocyte CLint” value was 34.2 μl/min/10^−6 cells. For the same molecule, the IC50 in data set [2] was determined as 7.5 nM. Besides, the efflux ratio at 120 min, 5 μM in the data set on MDR1, BCRP came out at 4.8.
